Data reported in the supplement of paper PMC10307832.

How the values were obtained:
Assay in all cases: relative viability (nuclei count vs DMSO), 5 days (fraction); higher = more cells survive
NCI-H1437 = test system: NCI-H1437
Procedure, shortened: (§1)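 Relative viability is defined as nuclei in treated wells over nuclei in vehicle wells. Duplicate plates were run and medians reported. Lung cancer cell lines in 1536-well plates were dosed by pin tool one day after seeding, with one drug or with a fixed anchor-drug dose plus five library-drug doses (not always all listed) in √10 steps, and nuclei were counted after 5 days.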

LU99A = test system: LU99A
Procedure, shortened: as §1

SW 1573 = test system: SW 1573
Procedure, shortened: as §1

NCI-H2085 = test system: NCI-H2085
Procedure, shortened: as §1

NCI-H1975 = test system: NCI-H1975
Procedure, shortened: as §1

EPLC-272H = test system: EPLC-272H
Procedure, shortened: as §1

H3255 = test system: H3255
Procedure, shortened: as §1

NCI-H1666 = test system: NCI-H1666
Procedure, shortened: as §1

LCLC-97TM1 = test system: LCLC-97TM1
Procedure, shortened: as §1

HCC-827 = test system: HCC-827
Procedure, shortened: as §1

COR-L 105 = test system: COR-L 105
Procedure, shortened: as §1

Molecule `CC(=O)O[C@@]12CO[C@@H]1C[C@H](O)[C@@]1(C)C(=O)[C@H](O)C3=C(C)[C@@H](OC(=O)[C@H](O)[C@@H](NC(=O)OC(C)(C)C)c4ccccc4)C[C@@](O)([C@@H](OC(=O)c4ccccc4)[C@H]21)C3(C)C` [Docetaxel] + Cc1nc(NC(=O)N2CCC[C@H]2C(N)=O)sc1-c1ccnc(C(C)(C)C(F)(F)F)c1 [Alpelisib] (partner 2 µM) has a relative viability (NCI-H1437; first compound 0.000632 µM) of 0.759, a relative viability (NCI-H1437; first compound 0.002 µM) of 0.156 and a relative viability (NCI-H1437; first compound 0.006325 µM) of 0.124. For the same molecule, the relative viability (NCI-H1437; first compound 0.02 µM) was 0.0738, the relative viability (LU99A; first compound 0.0002 µM) was 0.499 and the relative viability (LU99A; first compound 0.000632 µM) was 0.342. For the same molecule, the relative viability (LU99A; first compound 0.002 µM) was 0.299, the relative viability (LU99A; first compound 0.006325 µM) was 0.184 and the relative viability (LU99A; first compound 0.02 µM) was 0.139. For the same molecule, the relative viability (SW 1573; first compound 0.0002 µM) was 0.739, the relative viability (SW 1573; first compound 0.000632 µM) was 0.604 and the relative viability (SW 1573; first compound 0.002 µM) was 0.29. The relative viability (SW 1573; first compound 0.006325 µM) was 0.233, the relative viability (SW 1573; first compound 0.02 µM) was 0.185 and the relative viability (NCI-H2085; first compound 0.0002 µM) was 0.93. For the same molecule, the relative viability (NCI-H2085; first compound 0.000632 µM) was 0.905, the relative viability (NCI-H2085; first compound 0.002 µM) was 0.697 and the relative viability (NCI-H2085; first compound 0.006325 µM) was 0.609. It also gave a relative viability (NCI-H2085; first compound 0.02 µM) of 0.378, a relative viability (NCI-H1975; first compound 0.0002 µM) of 0.617 and a relative viability (NCI-H1975; first compound 0.000632 µM) of 0.437. It also gave a relative viability (NCI-H1975; first compound 0.006325 µM) of 0.156, a relative viability (NCI-H1975; first compound 0.02 µM) of 0.122 and a relative viability (EPLC-272H; first compound 0.0002 µM) of 0.928. It also gave a relative viability (EPLC-272H; first compound 0.000632 µM) of 0.741, a relative viability (EPLC-272H; first compound 0.002 µM) of 0.43 and a relative viability (EPLC-272H; first compound 0.006325 µM) of 0.147. The relative viability (EPLC-272H; first compound 0.02 µM) was 0.106, the relative viability (H3255; first compound 0.0002 µM) was 0.572 and the relative viability (H3255; first compound 0.000632 µM) was 0.722. For the same molecule, the relative viability (H3255; first compound 0.002 µM) was 0.348, the relative viability (H3255; first compound 0.006325 µM) was 0.251 and the relative viability (NCI-H1666; first compound 0.0002 µM) was 0.803. For the same molecule, the relative viability (NCI-H1666; first compound 0.000632 µM) was 0.406, the relative viability (NCI-H1666; first compound 0.002 µM) was 0.352 and the relative viability (NCI-H1666; first compound 0.006325 µM) was 0.276. The relative viability (NCI-H1666; first compound 0.02 µM) was 0.168, the relative viability (LCLC-97TM1; first compound 0.000632 µM) was 0.222 and the relative viability (LCLC-97TM1; first compound 0.002 µM) was 0.121. For the same molecule, the relative viability (LCLC-97TM1; first compound 0.006325 µM) was 0.154, the relative viability (LCLC-97TM1; first compound 0.02 µM) was 0.0979 and the relative viability (HCC-827; first compound 0.0002 µM) was 0.981. The relative viability (HCC-827; first compound 0.000632 µM) was 0.992, the relative viability (HCC-827; first compound 0.002 µM) was 0.706 and the relative viability (HCC-827; first compound 0.006325 µM) was 0.288. For the same molecule, the relative viability (HCC-827; first compound 0.02 µM) was 0.282, the relative viability (COR-L 105; first compound 0.0002 µM) was 0.828 and the relative viability (COR-L 105; first compound 0.000632 µM) was 0.952. It also gave a relative viability (COR-L 105; first compound 0.002 µM) of 0.475, a relative viability (COR-L 105; first compound 0.006325 µM) of 0.522 and a relative viability (COR-L 105; first compound 0.02 µM) of 0.306.
